According to patent US9790228B2, “Heterocyclic kinase inhibitors” (Intellikine LLC, priority 2008, dated 2017):

How the values were obtained:
Format in all cases: biochemical
p110α/p85α = p110α/p85α (Homo sapiens (Human), UniProt P42336); assay: PI3K α inhibition assay (TLC lipid kinase or HTRF)
Description: (§1) Class I PI3-Ks can be either purchased (p110α/p85α, p110β/p85α, p110δ/p85α from Upstate, and p110γ from Sigma) or expressed as previously described (Knight et al., 2004). IC50 values are measured using either a standard TLC assay for lipid kinase activity (described below) or a high-throughput membrane capture assay. Kinase reactions are performed by preparing a reaction mixture containing kinase, inhibitor (2% DMSO final concentration), buffer (25 mM HEPES, pH 7.4, 10 mM MgCl2), and freshly sonicated phosphatidylinositol (100 μg/ml). Reactions are initiated by the addition of ATP containing 10 μCi of γ-32P-ATP to a final concentration 10 or 100 μM and allowed to proceed for 5 minutes at room temperature. For TLC analysis, reactions are then terminated by the addition of […] 1N HCl followed by 160 μl CHCl3:MeOH (1:1). The biphasic mixture is vortexed, briefly centrifuged, and the organic phase is transferred to a new tube using a gel loading pipette tip precoated with CHCl3. This extract is spotted on TLC plates and developed for 3-4 hours in a 65:35 solution of n-propanol:1M acetic acid. The TLC plates are then dried, exposed to a phosphorimager screen (Storm, Amersham), and quantitated. For each compound, kinase activity is measured at 10-12 inhibitor concentrations representing two-fold dilutions from the highest concentration tested (typically, 200 μM).
(§2) Other commercial kits or systems for assaying PI3-K activities are available. The commercially available kits or systems can be used to screen for inhibitors and/or agonists of PI3-Ks including but not limited to PI 3-Kinase α, β, δ, and γ. Anr exemplary system is PI3-Kinase (human) HTRF™ Assay from Upstate. […] Briefly, the assay is a time resolved FRET assay that indirectly measures PIP3 product formed by the activity of a PI3-K. The kinase reaction is performed in a microtitre plate (e.g., a 384 well microtitre plate). The total reaction volume is approximately 20 ul per well. In the first step, each well receives 2 ul of test compound in 20% dimethylsulphoxide resulting in a 2% DMSO final concentration. Next, approximately 14.5 ul of a kinase/PIP2 mixture (diluted in 1× reaction buffer) is added per well for a final concentration of 0.25-0.3 ug/ml kinase and 10 uM PIP2. The plate is sealed and incubated for 15 minutes at room temperature. To start the reaction, 3.5 ul of ATP (diluted in 1× reaction buffer) is added per well for a final concentration of 10 uM ATP. The plate is sealed and incubated for 1 hour at room temperature. The reaction is stopped by adding 5 ul of Stop Solution per well and then 5 ul of Detection Mix is added per well. The plate is sealed, incubated for 1 hour at room temperature, and then read on an appropriate plate reader. Data is analyzed and IC50s are generated using GraphPad Prism 5.

p110β/p85α = p110β/p85α (Homo sapiens, UniProt P42338); assay: PI3K β inhibition assay (TLC lipid kinase or HTRF); conditions: read-out: PI3K β IC50
Description: as §1, §2

p110δ/p85α = p110δ/p85α (Homo sapiens (Human), UniProt O00329); assay: PI3K δ inhibition assay (TLC lipid kinase or HTRF)
Description: as §1, §2

p110γ = p110γ (Homo sapiens (Human), UniProt P48736); assay: PI3K γ inhibition assay (TLC lipid kinase or HTRF)
Description: as §1, §2

Chain of p110γ (P48736 whole entry): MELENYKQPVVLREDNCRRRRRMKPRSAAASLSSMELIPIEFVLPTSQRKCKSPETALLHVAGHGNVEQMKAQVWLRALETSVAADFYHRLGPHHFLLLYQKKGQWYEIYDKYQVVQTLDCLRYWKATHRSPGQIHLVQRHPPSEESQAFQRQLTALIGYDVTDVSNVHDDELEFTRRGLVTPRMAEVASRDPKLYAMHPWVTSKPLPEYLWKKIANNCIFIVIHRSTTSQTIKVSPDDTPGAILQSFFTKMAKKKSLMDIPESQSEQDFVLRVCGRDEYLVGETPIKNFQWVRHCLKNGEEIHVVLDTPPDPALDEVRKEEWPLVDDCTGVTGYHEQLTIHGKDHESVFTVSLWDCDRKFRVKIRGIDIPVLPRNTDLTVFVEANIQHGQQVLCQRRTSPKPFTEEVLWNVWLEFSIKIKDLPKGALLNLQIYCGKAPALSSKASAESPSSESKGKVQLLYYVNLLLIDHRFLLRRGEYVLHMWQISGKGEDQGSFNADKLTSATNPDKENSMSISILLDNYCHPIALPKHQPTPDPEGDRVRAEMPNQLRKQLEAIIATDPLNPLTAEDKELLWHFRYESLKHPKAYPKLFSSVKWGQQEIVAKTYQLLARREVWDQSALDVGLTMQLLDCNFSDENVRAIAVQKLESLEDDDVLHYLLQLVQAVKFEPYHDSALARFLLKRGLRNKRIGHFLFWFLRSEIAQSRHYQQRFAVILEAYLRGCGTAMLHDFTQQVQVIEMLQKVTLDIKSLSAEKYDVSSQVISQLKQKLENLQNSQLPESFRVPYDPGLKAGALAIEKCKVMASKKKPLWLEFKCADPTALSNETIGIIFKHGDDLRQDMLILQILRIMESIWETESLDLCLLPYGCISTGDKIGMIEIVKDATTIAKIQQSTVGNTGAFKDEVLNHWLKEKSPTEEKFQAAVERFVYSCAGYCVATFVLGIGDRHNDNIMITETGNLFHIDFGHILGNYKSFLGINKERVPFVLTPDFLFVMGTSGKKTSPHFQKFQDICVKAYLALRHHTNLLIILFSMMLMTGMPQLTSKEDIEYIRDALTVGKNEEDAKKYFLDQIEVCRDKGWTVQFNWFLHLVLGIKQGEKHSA
Chain of p110δ/p85α (O00329 whole entry): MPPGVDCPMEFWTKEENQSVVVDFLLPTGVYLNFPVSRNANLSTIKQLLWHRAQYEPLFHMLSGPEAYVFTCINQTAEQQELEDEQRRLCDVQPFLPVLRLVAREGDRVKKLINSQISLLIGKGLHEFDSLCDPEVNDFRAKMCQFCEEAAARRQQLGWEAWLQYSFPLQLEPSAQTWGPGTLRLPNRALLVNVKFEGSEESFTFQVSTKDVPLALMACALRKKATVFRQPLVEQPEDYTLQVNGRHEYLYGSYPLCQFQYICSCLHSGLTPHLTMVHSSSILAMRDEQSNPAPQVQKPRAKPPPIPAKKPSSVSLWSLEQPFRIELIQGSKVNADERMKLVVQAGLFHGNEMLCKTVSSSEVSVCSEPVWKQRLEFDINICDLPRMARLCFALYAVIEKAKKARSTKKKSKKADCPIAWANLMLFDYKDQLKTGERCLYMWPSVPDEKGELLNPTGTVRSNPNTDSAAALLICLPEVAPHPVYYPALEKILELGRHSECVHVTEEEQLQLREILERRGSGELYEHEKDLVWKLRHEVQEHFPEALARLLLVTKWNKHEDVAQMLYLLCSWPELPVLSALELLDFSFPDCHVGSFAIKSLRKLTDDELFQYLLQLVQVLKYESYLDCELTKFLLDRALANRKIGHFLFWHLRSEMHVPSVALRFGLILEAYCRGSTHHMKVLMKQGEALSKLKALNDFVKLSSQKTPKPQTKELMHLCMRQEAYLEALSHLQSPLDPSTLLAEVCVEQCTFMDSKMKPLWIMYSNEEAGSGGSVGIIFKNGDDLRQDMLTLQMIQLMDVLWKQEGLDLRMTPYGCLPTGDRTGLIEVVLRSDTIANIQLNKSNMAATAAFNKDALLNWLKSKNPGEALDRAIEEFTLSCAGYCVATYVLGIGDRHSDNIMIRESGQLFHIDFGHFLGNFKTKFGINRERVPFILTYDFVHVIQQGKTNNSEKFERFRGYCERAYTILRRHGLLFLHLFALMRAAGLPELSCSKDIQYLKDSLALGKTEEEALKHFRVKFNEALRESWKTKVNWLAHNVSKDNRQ
Chain of p110δ/p85α (P27986 whole entry partner): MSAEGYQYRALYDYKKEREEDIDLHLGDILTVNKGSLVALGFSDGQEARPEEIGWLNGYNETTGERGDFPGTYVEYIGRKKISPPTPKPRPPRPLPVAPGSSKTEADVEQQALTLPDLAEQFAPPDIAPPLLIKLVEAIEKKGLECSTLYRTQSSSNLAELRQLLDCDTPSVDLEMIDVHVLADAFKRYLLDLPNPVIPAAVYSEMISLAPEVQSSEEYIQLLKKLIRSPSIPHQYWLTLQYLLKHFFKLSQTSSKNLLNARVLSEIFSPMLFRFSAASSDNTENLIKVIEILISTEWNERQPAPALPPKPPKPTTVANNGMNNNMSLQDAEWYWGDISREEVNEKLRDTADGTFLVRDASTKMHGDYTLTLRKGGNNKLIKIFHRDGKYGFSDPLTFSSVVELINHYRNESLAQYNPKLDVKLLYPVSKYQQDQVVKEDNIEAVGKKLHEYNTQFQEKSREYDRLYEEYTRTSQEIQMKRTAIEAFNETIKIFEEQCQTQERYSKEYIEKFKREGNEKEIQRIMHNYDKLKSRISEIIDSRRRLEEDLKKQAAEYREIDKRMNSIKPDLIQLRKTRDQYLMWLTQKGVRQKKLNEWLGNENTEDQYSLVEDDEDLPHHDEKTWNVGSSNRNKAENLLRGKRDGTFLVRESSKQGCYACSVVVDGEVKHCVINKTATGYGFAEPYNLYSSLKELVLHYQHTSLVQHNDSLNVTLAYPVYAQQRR
Chain of p110α/p85α (P42336 whole entry): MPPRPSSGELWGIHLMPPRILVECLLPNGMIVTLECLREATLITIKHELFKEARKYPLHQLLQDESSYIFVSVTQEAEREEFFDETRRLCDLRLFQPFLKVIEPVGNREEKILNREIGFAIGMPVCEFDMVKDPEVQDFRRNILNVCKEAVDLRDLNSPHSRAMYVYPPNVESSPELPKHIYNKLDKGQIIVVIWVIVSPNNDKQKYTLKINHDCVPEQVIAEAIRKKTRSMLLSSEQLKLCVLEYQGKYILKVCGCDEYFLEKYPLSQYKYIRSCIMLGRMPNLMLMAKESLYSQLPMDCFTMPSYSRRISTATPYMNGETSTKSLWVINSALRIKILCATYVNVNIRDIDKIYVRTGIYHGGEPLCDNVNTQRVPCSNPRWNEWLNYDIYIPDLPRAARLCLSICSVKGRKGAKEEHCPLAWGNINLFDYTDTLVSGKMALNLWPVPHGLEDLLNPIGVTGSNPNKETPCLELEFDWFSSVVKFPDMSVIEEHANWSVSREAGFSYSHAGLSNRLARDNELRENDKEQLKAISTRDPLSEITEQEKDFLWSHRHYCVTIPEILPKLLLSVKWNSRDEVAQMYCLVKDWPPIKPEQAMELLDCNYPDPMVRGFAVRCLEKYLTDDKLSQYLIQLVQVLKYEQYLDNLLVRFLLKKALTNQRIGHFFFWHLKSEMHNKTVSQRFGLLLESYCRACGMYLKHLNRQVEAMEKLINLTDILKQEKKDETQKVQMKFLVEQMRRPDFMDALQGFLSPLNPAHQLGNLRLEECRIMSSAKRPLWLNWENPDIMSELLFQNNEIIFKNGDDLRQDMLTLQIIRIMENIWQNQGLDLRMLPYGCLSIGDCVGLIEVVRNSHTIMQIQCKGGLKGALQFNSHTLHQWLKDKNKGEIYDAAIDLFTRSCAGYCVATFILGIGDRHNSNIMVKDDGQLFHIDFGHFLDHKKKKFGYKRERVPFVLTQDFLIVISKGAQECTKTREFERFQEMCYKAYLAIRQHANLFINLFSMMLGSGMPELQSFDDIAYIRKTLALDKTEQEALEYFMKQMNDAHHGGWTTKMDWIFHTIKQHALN
Chain of p110α/p85α (P27986 whole entry partner): as the sequence (P27986 whole entry partner) above
Chain of p110β/p85α (P42338 whole entry, looked up): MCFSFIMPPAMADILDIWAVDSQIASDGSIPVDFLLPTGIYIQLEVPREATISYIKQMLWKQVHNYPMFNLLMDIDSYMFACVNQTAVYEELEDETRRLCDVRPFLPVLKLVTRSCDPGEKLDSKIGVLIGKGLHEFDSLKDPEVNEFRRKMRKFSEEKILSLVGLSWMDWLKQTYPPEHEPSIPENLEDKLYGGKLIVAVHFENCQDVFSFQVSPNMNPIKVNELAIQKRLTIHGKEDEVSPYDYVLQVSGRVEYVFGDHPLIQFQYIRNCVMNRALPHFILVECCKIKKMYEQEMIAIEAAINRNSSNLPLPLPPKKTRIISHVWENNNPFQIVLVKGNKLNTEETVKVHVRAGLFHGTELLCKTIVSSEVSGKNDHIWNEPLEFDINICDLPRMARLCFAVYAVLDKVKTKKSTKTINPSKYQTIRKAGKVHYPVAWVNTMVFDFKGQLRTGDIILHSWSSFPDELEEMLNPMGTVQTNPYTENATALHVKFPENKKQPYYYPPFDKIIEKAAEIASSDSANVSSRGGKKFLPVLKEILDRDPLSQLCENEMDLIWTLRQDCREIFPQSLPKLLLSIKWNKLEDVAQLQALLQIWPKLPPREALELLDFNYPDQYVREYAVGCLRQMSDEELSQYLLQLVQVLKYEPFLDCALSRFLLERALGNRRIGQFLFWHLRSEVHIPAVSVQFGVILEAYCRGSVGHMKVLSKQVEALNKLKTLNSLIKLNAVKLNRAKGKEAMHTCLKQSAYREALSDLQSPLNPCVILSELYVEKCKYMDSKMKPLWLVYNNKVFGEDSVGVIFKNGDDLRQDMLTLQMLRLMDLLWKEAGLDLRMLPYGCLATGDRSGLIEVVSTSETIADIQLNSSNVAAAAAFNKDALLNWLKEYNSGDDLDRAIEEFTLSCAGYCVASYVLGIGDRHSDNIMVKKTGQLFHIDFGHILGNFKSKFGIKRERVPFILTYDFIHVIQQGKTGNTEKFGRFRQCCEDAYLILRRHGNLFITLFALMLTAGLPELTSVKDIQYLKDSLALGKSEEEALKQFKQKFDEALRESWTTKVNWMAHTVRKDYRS

Row | Compound | IC50 (p110α/p85α) [nM] | IC50 (p110β/p85α) [nM] | IC50 (p110δ/p85α) [nM] | IC50 (p110γ) [nM]
1 | CC(C)N1CCN(c2nc3ccccc3cc2Cn2nc(-c3ccc4nc(N)sc4c3)c3c(N)ncnc32)CC1 [Compound 164] | < 100 | < 100 | – | –
2 | CCn1c(=O)c(Cn2nc(-c3cccc(O)c3)c3c(N)ncnc32)cc2ccccc21 [Compound 115] | > 1000 | > 1000 | 100 to 1000 | > 1000
3 | Nc1ncnc2c1c(-c1cc(O)cc(F)c1)nn2Cc1cc2ccccc2nc1NC1CCCC1 [Compound 33] | – | – | 100 to 1000 | –
4 | Nc1ncnc2c1c(I)nn2Cc1cc2c(nc1-c1ccccc1F)CCC2 [Compound 100] | – | – | > 1000 | –
5 | Nc1ncnc2c1c(-c1cc(F)ccc1O)nn2Cc1cc2ccccc2nc1N1CCCC1 [Compound 22] | – | – | > 1000 | –
6 | CC(Nc1ncnc2[nH]cnc12)c1cc2ccccc2nc1-c1ccccc1 (centres unmarked) [Compound 93] | > 1000 | > 1000 | < 100 | 100 to 1000
7 | Nc1cc(-c2nn(Cc3cc4ccccc4nc3-c3ccccc3F)c3ncnc(N)c23)ccn1 [Compound 172] | > 1000 | > 1000 | > 1000 | –
8 | N#Cc1nn(Cc2cc3ccccc3nc2-c2ccccc2F)c2ncnc(N)c12 [Compound 189] | > 1000 | > 1000 | > 1000 | –
9 | CCC(c1cc2ccccc2nc1N1CCCC1)n1cnc2c(N)ncnc21 (centres unmarked) [Compound 36] | – | – | > 1000 | > 1000
10 | Nc1ncnc2c1c(-c1cc(O)cc(F)c1)nn2Cc1cc2ccccc2nc1-c1ccccc1 [Compound 149] | – | > 1000 | – | –
11 | NC(=O)c1cccc(-c2nn(Cc3cc4ccccc4nc3N3CCCC3)c3ncnc(N)c23)c1 [Compound 28] | – | – | > 1000 | –
12 | CC(C)n1c(=O)c(Cn2nc(-c3cccc(O)c3)c3c(N)ncnc32)cc2ccccc21 [Compound 110] | > 1000 | > 1000 | 100 to 1000 | > 1000
13 | CCn1c(=O)c(Cn2nc(-c3cccc(O)c3)c3c(N)ncnc32)nc2ccccc21 [Compound 116] | > 1000 | > 1000 | 100 to 1000 | > 1000
14 | Cc1cccc2cc(Cn3nc(-c4cc(O)cc(F)c4)c4c(N)ncnc43)c(N3CCOCC3)nc12 [Compound 65] | 100 to 1000 | 100 to 1000 | < 100 | < 100
15 | Nc1ncnc2c1c(-c1ccc(O)nc1)nn2Cc1cc2ccccc2nc1-c1ccccc1F [Compound 161] | > 1000 | > 1000 | – | –
16 | CNc1ncnc2c1c(-c1cc(O)cc(F)c1)nn2Cc1cc2ccccc2nc1N(C)CCN1CCOCC1 [Compound 76] | > 1000 | > 1000 | > 1000 | > 1000
17 | Nc1ncnc2c1c(-c1cc(O)cc(F)c1)nn2CCn1c(-c2ccccc2)nc2ccccc21 [Compound 126] | – | – | > 1000 | –
18 | Nc1ncnc2c1c(-c1cccc(O)c1)nn2Cc1cc2ccccc2nc1-c1ccccc1F [Compound 91] | > 1000 | > 1000 | 100 to 1000 | 100 to 1000
19 | CCC(c1cc2ccccc2nc1-c1ccccc1)n1cnc2c(N)ncnc21 (centres unmarked) [Compound 37] | – | – | > 1000 | > 1000
20 | Nc1ncnc2c1c(/C=C1/CCNC1=O)nn2Cc1cc2ccccc2nc1-c1ccccc1F [Compound 193] | > 1000 | > 1000 | > 1000 | > 1000
21 | CN(C)c1ncccc1Cn1nc(-c2cc(O)cc(F)c2)c2c(N)ncnc21 [Compound 125] | – | – | > 1000 | –
22 | Cc1ccccc1-c1nc2ccccc2nc1Cn1nc(-c2cccc(O)c2)c2c(N)ncnc21 [Compound 108] | > 1000 | > 1000 | 100 to 1000 | > 1000
23 | C=Cc1nn(Cc2cc3ccccc3nc2-c2ccccc2F)c2ncnc(N)c12 [Compound 190] | > 1000 | > 1000 | > 1000 | > 1000
24 | Nc1cc(-c2nn(Cc3cc4ccccc4nc3-c3ccccc3)c3ncnc(N)c23)ccn1 [Compound 173] | > 1000 | > 1000 | > 1000 | –
25 | Nc1ncnc2c1c(-c1cccnc1)nn2Cc1cc2ccccc2nc1N1CCCC1 [Compound 62] | – | – | 100 to 1000 | 100 to 1000
26 | CC(c1cc2ccccc2nc1N1CCCC1)n1cnc2c(N)ncnc21 (centres unmarked) [Compound 35] | – | – | > 1000 | > 1000
